Assay results published in the NIST ThermoML archive (doi:10.1016/j.jct.2019.06.023).
± gives the expanded uncertainty stated by the source.

Assay: mn = molality of the nth substance listed, in mol/kg
Settings: 100 kPa, Liquid; for speed of sound: Frequency=3 MHz, Single path-length method; for mass density: Vibrating tube method

O=C([O-])C(=O)[O-].[K+].[K+] [potassium oxalate] + O
Settings	mass density, 288.15 K [kg/m3]	mass density, 298.15 K [kg/m3]	mass density, 308.15 K [kg/m3]	mass density, 318.15 K [kg/m3]	speed of sound, 288.15 K [m/s]	speed of sound, 298.15 K [m/s]	speed of sound, 308.15 K [m/s]	speed of sound, 318.15 K [m/s]
m1 = 0.2	1023.62 ± 0.58	1021.1 ± 0.57	1017.79 ± 0.57	1013.81 ± 0.56	1497 ± 1.4	1524.8 ± 1.4	1545.9 ± 1.4	1561.2 ± 1.3
m1 = 0.4	1046.97 ± 0.96	1044.13 ± 0.97	1040.55 ± 0.96	1036.39 ± 0.65	1525.3 ± 2.1	1550.9 ± 1.6	1570.5 ± 1.6	1584.6 ± 2.4
m1 = 0.6	1069.58 ± 1.4	1066.44 ± 1.4	1062.69 ± 1.4	1058.36 ± 1.6	1552.3 ± 1.3	1576.4 ± 2	1594.5 ± 1.9	1607.1 ± 1.6
m1 = 0.8	1092.28 ± 1.9	1088.95 ± 1.8	1084.89 ± 1.8	1080.46 ± 1.8	1580.5 ± 2.6	1602.3 ± 2.3	1618.8 ± 2.2	1630.1 ± 2.2
